From ChEMBL document CHEMBL4004825 (J Med Chem, 2017)

Key:
[1] = Stability in human liver microsomes; assay type: ADME, microsome; conditions: read-out: Stability
[2] = Stability in rat liver microsomes; assay type: ADME, microsome; conditions: read-out: Stability
[3] = Permeability in RRCK cells; assay type: ADME, cell-based, Canis lupus familiaris, MDCKII-LE; conditions: dog, MDCK; read-out: permeability
[4] = Half-life in Sprague-Dawley rat blood at 1 uM by LC-MS/MS analysis; assay type: ADME, tissue-based
[5] = Volume of distribution at steady state in mouse; assay type: ADME, organism-based; conditions: in vivo, read-out: Vdss
[6] = Volume of distribution at steady state in rat; assay type: ADME; conditions: in vivo, read-out: Vdss
[7] = Volume of distribution at steady state in monkey; assay type: ADME, Macaca mulatta; conditions: rhesus monkey, in vivo; read-out: Vdss
[8] = Unbound intrinsic clearance in mouse hepatocytes assessed per million cells; assay type: ADME, cell-based, Hepatocyte
[9] = Unbound intrinsic clearance in rat hepatocytes assessed per million cells; assay type: ADME, cell-based, Hepatocyte
[10] = Unbound intrinsic clearance in monkey hepatocytes assessed per million cells; assay type: ADME, cell-based, Macaca mulatta, Hepatocyte; conditions: rhesus monkey
[11] = Unbound intrinsic clearance in dog hepatocytes assessed per million cells; assay type: ADME, cell-based, Canis lupus familiaris, Hepatocyte
[12] = Unbound intrinsic clearance in human hepatocytes assessed per million cells; assay type: ADME, cell-based, Hepatocyte
[13] = Half-life in rat blood; assay type: ADME, tissue-based
[14] = Half-life in monkey blood; assay type: ADME, tissue-based, Macaca mulatta; conditions: rhesus monkey
[15] = Blood clearance in mouse; assay type: ADME, organism-based; conditions: whole blood
[16] = Blood clearance in rat; assay type: ADME; conditions: whole blood
[17] = Blood clearance in monkey; assay type: ADME, Macaca mulatta; conditions: rhesus monkey, whole blood
[18] = Blood clearance in dog; assay type: ADME, Canis lupus familiaris; conditions: whole blood
[19] = Oral bioavailability in mouse; assay type: ADME, organism-based; conditions: in vivo
[20] = Oral bioavailability in rat; assay type: ADME, organism-based; conditions: in vivo
[21] = Oral bioavailability in monkey; assay type: ADME, organism-based, Macaca mulatta; conditions: rhesus monkey, in vivo
[22] = Oral bioavailability in dog; assay type: ADME, organism-based, Canis lupus familiaris; conditions: in vivo
[23] = Aqueous solubility of the compound; assay type: physicochemical
[24] = molecular target: T1, Tyrosine-protein kinase TXK (Homo sapiens, UniProt P42681); assay: Inhibition of recombinant human N-terminal GST-tagged TXK using GEPLYWSFPAKKK as substrate measured every 60 secs for 1 hr by PK/LDH coupled spectrophotometric assay
T1 sequence (P42681 whole entry): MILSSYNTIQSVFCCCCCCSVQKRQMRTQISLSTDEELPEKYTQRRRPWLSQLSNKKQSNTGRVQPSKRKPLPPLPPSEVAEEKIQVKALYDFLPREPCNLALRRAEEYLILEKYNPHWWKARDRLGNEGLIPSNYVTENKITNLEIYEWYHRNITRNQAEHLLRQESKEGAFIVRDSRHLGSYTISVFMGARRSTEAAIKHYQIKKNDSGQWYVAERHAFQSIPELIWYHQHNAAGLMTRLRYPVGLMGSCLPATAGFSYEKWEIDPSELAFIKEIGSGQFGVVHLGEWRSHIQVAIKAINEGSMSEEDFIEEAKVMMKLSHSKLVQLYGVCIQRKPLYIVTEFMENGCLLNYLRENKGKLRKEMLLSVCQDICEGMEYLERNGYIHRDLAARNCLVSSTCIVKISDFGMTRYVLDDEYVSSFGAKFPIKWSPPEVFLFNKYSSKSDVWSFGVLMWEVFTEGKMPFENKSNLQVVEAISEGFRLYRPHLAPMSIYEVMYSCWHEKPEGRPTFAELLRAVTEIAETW

[25] = molecular target: T2, Tyrosine-protein kinase Tec (Homo sapiens, UniProt P42680); assay: Inhibition of full length human His-tagged TEC by KT178 probe based TR-FRET assay
T2 sequence (P42680 whole entry): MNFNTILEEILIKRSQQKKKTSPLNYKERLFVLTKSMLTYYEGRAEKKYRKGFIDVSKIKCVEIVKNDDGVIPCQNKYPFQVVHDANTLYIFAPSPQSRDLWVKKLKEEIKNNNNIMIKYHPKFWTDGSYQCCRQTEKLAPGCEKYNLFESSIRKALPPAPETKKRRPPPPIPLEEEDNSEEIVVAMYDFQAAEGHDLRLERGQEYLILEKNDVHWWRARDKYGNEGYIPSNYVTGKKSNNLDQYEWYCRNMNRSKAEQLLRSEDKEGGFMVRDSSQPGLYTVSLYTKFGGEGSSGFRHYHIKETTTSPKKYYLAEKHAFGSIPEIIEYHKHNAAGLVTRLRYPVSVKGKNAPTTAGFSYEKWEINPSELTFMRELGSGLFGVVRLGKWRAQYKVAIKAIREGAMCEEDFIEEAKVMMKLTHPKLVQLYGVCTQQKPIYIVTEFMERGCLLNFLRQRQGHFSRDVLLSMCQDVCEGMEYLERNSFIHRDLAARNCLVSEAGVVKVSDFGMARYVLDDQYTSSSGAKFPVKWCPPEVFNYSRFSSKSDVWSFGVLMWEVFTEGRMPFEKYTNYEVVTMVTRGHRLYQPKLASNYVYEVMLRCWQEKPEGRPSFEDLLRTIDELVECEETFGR

[26] = molecular target: T3, Tyrosine-protein kinase Blk (Homo sapiens, UniProt P51451); assay: Inhibition of full length recombinant human His-tagged cytoplasmic BLK expressed in baculovirus expression system by KT236 probe based TR-FRET assay
[27] = molecular target: T3, Tyrosine-protein kinase Blk; assay: Inhibition of full length recombinant human His-tagged cytoplasmic BLK expressed in baculovirus expression system in presence of 1 mM ATP by KT236 probe based TR-FRET assay
[28] = molecular target: Epidermal growth factor receptor (Homo sapiens, UniProt P00533); assay: Inhibition of N-terminal GST-tagged human EGFR cytoplasmic domain expressed in baculovirus infected Sf21 insect cells in presence of 1 mM ATP
[29] = molecular target: Receptor tyrosine-protein kinase erbB-2 (Homo sapiens, UniProt P04626); assay: Inhibition of human N-terminal His-tagged HER2 expressed in baculovirus expression system in presence of 1 mM ATP
[30] = molecular target: T4, Dual specificity mitogen-activated protein kinase kinase 7 (Homo sapiens, UniProt O14733); assay: Inhibition of human N-terminal GST-tagged full length MAP2K7 expressed in baculovirus infected Sf21 insect cells in presence of 1 mM ATP
T4 sequence (O14733 whole entry): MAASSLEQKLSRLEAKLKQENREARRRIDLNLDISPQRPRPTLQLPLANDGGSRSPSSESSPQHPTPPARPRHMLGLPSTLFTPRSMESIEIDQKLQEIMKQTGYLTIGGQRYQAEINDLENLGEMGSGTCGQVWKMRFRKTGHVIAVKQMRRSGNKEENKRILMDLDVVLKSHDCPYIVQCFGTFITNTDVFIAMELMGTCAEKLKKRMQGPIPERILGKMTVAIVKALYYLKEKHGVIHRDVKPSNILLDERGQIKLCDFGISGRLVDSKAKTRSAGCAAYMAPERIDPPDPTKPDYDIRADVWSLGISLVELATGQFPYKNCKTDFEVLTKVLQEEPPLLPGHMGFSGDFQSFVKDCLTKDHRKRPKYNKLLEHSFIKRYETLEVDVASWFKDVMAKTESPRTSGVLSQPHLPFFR

[31] = Volume of distribution at steady state in dog; assay type: ADME, Canis lupus familiaris; conditions: in vivo, read-out: Vdss
[32] = Half life in mouse plasma; assay type: ADME
[33] = Half life in rat plasma; assay type: ADME
[34] = Half life in monkey plasma; assay type: ADME, Macaca mulatta; conditions: rhesus monkey
[35] = Half life in dog plasma; assay type: ADME, Canis lupus familiaris

T3 sequence (P51451 whole entry): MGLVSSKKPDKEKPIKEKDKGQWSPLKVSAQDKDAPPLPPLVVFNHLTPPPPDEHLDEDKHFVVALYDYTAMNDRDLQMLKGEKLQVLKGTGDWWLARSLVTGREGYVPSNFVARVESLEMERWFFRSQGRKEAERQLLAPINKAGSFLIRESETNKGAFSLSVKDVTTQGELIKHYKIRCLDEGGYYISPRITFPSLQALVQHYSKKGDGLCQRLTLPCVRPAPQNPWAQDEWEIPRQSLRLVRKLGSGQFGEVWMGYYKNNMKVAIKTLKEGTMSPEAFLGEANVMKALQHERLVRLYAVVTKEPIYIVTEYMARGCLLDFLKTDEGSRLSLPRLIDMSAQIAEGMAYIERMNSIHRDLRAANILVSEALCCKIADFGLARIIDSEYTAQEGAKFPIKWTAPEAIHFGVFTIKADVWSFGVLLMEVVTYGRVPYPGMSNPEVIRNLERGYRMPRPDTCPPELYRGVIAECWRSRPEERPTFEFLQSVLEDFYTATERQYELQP
Chain of Receptor tyrosine-protein kinase erbB-2 (P04626 whole entry): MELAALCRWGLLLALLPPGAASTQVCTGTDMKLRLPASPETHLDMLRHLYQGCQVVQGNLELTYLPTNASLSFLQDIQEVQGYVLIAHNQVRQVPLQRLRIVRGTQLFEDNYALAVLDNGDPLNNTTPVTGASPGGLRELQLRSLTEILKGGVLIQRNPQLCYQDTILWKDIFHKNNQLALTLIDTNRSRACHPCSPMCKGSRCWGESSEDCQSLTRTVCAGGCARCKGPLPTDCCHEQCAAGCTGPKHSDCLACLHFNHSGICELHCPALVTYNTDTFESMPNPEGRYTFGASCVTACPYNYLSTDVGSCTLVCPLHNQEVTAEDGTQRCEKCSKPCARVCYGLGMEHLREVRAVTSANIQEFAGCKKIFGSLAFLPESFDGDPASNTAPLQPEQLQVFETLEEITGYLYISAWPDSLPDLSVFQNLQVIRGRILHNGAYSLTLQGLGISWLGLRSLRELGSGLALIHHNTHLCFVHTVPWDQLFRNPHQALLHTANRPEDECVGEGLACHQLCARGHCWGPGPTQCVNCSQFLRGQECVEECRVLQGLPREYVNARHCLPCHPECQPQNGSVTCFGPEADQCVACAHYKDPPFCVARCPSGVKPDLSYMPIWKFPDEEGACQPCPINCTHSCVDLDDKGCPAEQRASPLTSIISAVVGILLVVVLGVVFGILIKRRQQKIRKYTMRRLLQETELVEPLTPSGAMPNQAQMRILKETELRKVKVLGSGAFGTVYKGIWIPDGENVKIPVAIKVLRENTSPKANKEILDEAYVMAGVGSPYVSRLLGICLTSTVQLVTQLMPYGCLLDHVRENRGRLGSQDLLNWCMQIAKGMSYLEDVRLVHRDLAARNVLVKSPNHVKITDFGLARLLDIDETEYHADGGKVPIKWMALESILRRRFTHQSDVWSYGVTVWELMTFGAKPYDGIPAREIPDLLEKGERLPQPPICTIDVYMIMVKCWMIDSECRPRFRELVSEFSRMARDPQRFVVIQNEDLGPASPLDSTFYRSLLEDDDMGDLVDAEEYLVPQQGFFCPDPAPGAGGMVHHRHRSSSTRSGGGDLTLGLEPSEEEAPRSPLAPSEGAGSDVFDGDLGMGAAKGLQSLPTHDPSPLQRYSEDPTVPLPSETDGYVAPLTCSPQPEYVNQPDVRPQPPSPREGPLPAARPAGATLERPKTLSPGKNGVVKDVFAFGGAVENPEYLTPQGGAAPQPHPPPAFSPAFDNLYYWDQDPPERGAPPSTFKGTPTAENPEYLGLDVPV
Chain of Epidermal growth factor receptor (P00533 whole entry, the tested form may be a part): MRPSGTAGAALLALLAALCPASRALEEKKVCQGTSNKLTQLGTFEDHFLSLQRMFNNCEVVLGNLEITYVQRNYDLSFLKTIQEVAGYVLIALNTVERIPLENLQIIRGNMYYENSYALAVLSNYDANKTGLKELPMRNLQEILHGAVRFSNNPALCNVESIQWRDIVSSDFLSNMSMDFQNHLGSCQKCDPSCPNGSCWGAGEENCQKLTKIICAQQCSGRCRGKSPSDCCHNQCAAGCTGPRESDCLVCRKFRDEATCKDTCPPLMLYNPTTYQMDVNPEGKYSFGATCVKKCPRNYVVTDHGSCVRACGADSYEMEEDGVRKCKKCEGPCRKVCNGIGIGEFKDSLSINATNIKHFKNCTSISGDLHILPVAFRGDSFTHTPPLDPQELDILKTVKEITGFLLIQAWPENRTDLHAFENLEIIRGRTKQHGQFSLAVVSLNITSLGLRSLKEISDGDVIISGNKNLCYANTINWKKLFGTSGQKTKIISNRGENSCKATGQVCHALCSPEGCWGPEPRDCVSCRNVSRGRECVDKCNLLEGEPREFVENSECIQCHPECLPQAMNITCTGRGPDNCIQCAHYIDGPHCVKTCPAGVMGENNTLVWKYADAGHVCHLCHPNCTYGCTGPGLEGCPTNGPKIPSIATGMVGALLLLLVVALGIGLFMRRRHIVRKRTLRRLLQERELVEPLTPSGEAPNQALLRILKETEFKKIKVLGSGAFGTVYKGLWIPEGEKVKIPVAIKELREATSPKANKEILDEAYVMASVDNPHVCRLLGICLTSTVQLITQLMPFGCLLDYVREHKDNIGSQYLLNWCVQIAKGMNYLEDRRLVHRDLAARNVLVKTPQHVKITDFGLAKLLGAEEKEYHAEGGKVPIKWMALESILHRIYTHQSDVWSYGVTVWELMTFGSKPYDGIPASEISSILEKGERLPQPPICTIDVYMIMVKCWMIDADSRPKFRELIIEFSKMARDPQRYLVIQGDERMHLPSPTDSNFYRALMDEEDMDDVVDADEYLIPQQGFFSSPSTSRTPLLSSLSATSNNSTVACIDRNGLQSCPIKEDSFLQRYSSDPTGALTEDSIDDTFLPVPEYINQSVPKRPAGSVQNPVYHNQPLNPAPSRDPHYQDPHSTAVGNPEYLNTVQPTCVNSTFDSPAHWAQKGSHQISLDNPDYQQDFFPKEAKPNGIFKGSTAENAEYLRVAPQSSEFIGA

Compound `C=CC(=O)N1C[C@H](Nc2ncnc3[nH]ccc23)CC[C@@H]1C` [RITLECITINIB] has a microsomal CLint [1] of 8 µL/min/mg, a microsomal CLint [2] of under 15 µL/min/mg and a Papp [3] of 15 ×10⁻⁶ cm/s. For the same compound, the half-life at 1 µM [4] was 2.68 h, the Vd [5] was 0.8 L/kg and the Vd [6] was 1.4 L/kg. For the same compound, the Vd [7] was 2.6 L/kg, the CL free [8] was 53 µL/min and the CL free [9] was 14 µL/min. For the same compound, the CL free [10] was 7.6 µL/min, the CL free [11] was 2.1 µL/min and the CL free [12] was 2.8 µL/min. It also gave a half-life [13] of 2.68 h, a half-life [14] of 0.617 h and a clearance [15] of 48 mL/min/kg. It also gave a clearance [16] of 53 mL/min/kg, a clearance [17] of 42 mL/min/kg and a clearance [18] of 8.6 mL/min/kg. For the same compound, the bioavailability [19] was 62%, the bioavailability [20] was 85% and the bioavailability [21] was 56%. It also gave a bioavailability [22] of 109%, a solubility [23] of over 2000 µg/mL and a Ki [24] of 0.131 µM. It also gave a Ki [25] of 0.679 µM, a Ki [26] of 32.4 µM and an IC50 [27] of 19 µM. It also gave an IC50 [28] of over 50 µM, an IC50 [29] of over 50 µM and an IC50 [30] of over 50 µM. The Vd [31] was 1.1 L/kg, the half-life [32] was 1.3 h and the half-life [33] was 0.3 h. The half-life [34] was 0.7 h and the half-life [35] was 1.1 h.
